Reference: ChEMBL document CHEMBL1143203, “Targeting the inverted CCAAT Box-2 of the topoisomerase IIalpha gene: DNA sequence selective recognition by a polyamide-intercalator as a staggered dimer” (Bioorg Med Chem, 2008)
Active and inactive are the calls of the source. The calls are words filed in the database; no cut-off is given here.

Key:
[1] = test system: Nucleic Acid; assay: Binding affinity to topoisomerase 2alpha promoter ATGCAT DNA by thermal denaturation assay; assay type: nucleic-acid assay
[2] = Inhibition of NF-Y binding to 5'-[32P]ICB2-containing DNA fragment at 50 uM after 2 hrs by electrophoretic mobility shift assay
[3] = Binding affinity to biotinylated ACGCGT DNA
[4] = test system: Nucleic Acid; assay: Binding affinity to topoisomerase 2-alpha promoter AAGCTA DNA by thermal denaturation assay; assay type: nucleic-acid assay
[5] = Binding affinity to biotinylated AAGCTT DNA
[6] = Binding affinity to biotinylated AAATTT DNA
[7] = test system: Nucleic Acid; assay: Binding affinity to topoisomerase 2alpha promoter AAATTT 11 bp DNA by thermal denaturation assay; assay type: nucleic-acid assay
[8] = test system: Nucleic Acid; assay: Binding affinity to topoisomerase 2-alpha promoter AAATTT 12 bp DNA by thermal denaturation assay; assay type: nucleic-acid assay
[9] = test system: NIH3T3; assay: Induction of topoisomerase 2-alpha expression in mouse NIH3T3 cells at 10 uM after 24 hrs by Western blotting assay; assay type: functional, cell-based
[10] = test system: Nucleic Acid; assay: Binding affinity to topoisomerase 2alpha promoter AAATTT 10 bp DNA by thermal denaturation assay; assay type: nucleic-acid assay

Row | Compound | ΔTm [1] [°C] | Activity [2] | K [3] | ΔTm [4] [°C] | K [5] | K [6] | ΔTm [7] [°C] | ΔTm [8] [°C] | Activity [9] | ΔTm [10] [°C]
1 | CN(C)CCCNC(=O)c1cc(NC(=O)c2cc(NC(=O)c3nc(NC=O)cn3C)cn2C)cn1C | 11 | inactive | 9.5 10^4/M | 5.1 | 5.5 10^6/M | 4.7 10^5/M | 3.5 | – | – | –
2 | CN(CCCNC(=O)CCCCCCCN1C(=O)c2cccc3cccc(c23)C1=O)CCCNC(=O)c1cc(NC(=O)c2cc(NC(=O)c3nc(NC=O)cn3C)cn2C)cn1C | – | Active | 2.8 10^5/M | 8.4 | 5.6 10^6/M | 1.5 10^5/M | – | 3.8 | Active | –
3 | CN(CCCN)CCCNC(=O)c1cc(NC(=O)c2cc(NC(=O)c3nc(NC=O)cn3C)cn2C)cn1C | – | – | – | > 22 | – | – | – | – | – | 10
